# Measured values as given in US20090197880A1 (Genelabs Technologies, Inc., priority 2007, published 2009).
# Assay: HCV replicon assay (luciferase) in ET (Huh-lucubineo-ET) cell line
# Assay type: cell-based
# Conditions: Hepatitis C virus; tested at 10 μM; inhibition of replication relative to no compound control; ET replicon cells, luciferase 48-72 hours; read-out: % inhition at 10 μM
# Text: A cell line, ET (Huh-lucubineo-ET) was used for screening of compounds, or pharmaceutically acceptable salts or solvates, described herein for inhibition of HCV RNA dependent RNA polymerase. The ET cell line was stably transfected with RNA transcripts harboring a I389luc-ubi-neo/NS3-3′/ET; replicon with firefly luciferase-ubiquitin-neomycin phosphotransferase fusion protein and EMCV-IRES driven NS3-5B polyprotein containing the cell culture adaptive mutations (E1202G; T1280I; K1846T) (Krieger at al, 2001 and unpublished). The ET cells were grown in DMEM, supplemented with 10% fetal calf serum, 2 mM Glutamine, Penicillin (100 IU/mL)/Streptomycin (100 μg/mL), 1× nonessential amino acids, and 250 μg/mL G418 (“Geneticin”). They were all available through Life Technologies (Bethesda, Md.). The cells were plated at 0.5−1.0×10^4 cells/well in the 96 well plates and incubated for 24 hrs before adding the test compounds. […] Luciferase activity was measured 48-72 hours later by adding a lysis buffer and the substrate (Catalog number Glo-lysis buffer E2661 and Bright-Glo luciferase system E2620 Promega, Madison, Wis.). Cells should not be too confluent during the assay. Percent inhibition of replication was plotted relative to no compound control. Under the same condition, cytotoxicity of the compounds was determined using cell proliferation reagent, WST-1 (Roche, Germany). The compounds showing antiviral activities, but no significant cytotoxicities were chosen to determine the EC50 and TC50, the effective concentration and toxic concentration at which 50% of the maximum inhibition is observed. For these determinations, 6 dilutions of each compound were used. Compounds were typically diluted 3 fold to span a concentration range of 250 fold. EC50 and similarly TC50 values were calculated by fitting % inhibition at each concentration to the following equation:
# % inhibition=100%/[(EC50/[I])^b+1]
# where b is Hill's coefficient.
row,SMILES,inhibition at 10 µM [%]
1,"CCCCc1ccc(-c2cc(Cn3cc4nc(-c5cccc(F)c5F)nc-4cn3)on2)c(C(F)(F)F)c1 [Compound 186, 5-[3-(4-Butyl-2-trifluoromethyl-phenyl)-isoxazol-5-ylmethyl]-2-(2,3-difluoro-phenyl)-5H-imidazo[4,5-d]pyridazine]",100
2,"Cc1ccc(-c2cc(Cn3cc4nc(-c5cccc(F)c5F)nc-4cn3)on2)cc1 [Compound 187, 2-(2,3-Difluoro-phenyl)-5-(3-p-tolyl-isoxazol-5-ylmethyl)-5H-imidazo[4,5-d]pyridazine]",99.7
3,"CC(C)Cc1ccc(-c2cc(Cn3cc4nc(-c5cccc(F)c5F)nc-4cn3)on2)cc1 [Compound 190, 2-(2,3-Difluoro-phenyl)-5-[3-(4-isobutyl-phenyl)-isoxazol-5-ylmethyl]-5H-imidazo[4,5-d]pyridazine]",99.9
4,"CCCCCc1ccc(-c2cc(Cn3cc4nc(-c5cccc(F)c5F)nc-4cn3)on2)cc1 [Compound 191, 2-(2,3-Difluoro-phenyl)-5-[3-(4-pentyl-phenyl)-isoxazol-5-ylmethyl]-5H-imidazo[4,5-d]pyridazine]",99.8
5,"COC(=O)CCCOc1ccc(-c2cc(Cn3cc4nc(-c5cccc(F)c5F)nc-4cn3)on2)cc1 [Compound 192, 4-(4-{5-[2-(2,3-difluoro-phenyl)-imidazo[4,5-d]pyridazin-5-ylmethyl]-isoxazol-3-yl}-phenoxy)-butyric acid methyl ester]",54.1
6,"OCCCOc1ccc(-c2cc(Cn3cc4nc(-c5cccc(F)c5F)nc-4cn3)on2)cc1 [Compound 193, 3-(4-{5-[2-(2,3-difluoro-phenyl)-imidazo[4,5-d]pyridazin-5-ylmethyl]-isoxazol-3-yl}-phenoxy)-propan-1-ol]",76.3
7,"CN1CCN(c2ccc(-c3cc(Cn4cc5nc(-c6cccc(F)c6F)nc-5cn4)on3)cc2)CC1 [Compound 194, 2-(2,3-Difluoro-phenyl)-5-{3-[4-(4-methyl-piperazin-1-yl)-phenyl]-isoxazol-5-ylmethyl}-5H-imidazo[4,5-d]pyridazine]",57.5
8,COCCOc1ccc(-c2cc(Cn3cc4nc(-c5cccc(F)c5F)nc-4cn3)on2)cc1 [Compound 195],98.8
9,"Fc1cccc(-c2nc3cnn(Cc4cc(-c5ccc(OCCN6CCOCC6)cc5)no4)cc-3n2)c1F [Compound 196, 2-(2,3-Difluoro-phenyl)-5-{3-[4-(2-morpholin-4-yl-ethoxy)-phenyl]-isoxazol-5-ylmethyl}-5H-imidazo[4,5-d]pyridazine]",89
10,"CCCOC(=O)c1cc(-c2cc(Cn3cc4nc(-c5cccc(F)c5F)nc-4cn3)on2)ccc1OCCC [Compound 197, 5-{5-[2-(2,3-Difluoro-phenyl)-imidazo[4,5-d]pyridazin-5-ylmethyl]-isoxazol-3-yl}-2-propoxy-benzoic acid propyl ester]",54.1
11,"COC(=O)c1cc(OC)ccc1-c1cc(Cn2cc3nc(-c4cccc(F)c4F)nc-3cn2)on1 [Compound 198, 2-{5-[2-(2,3-Difluoro-phenyl)-imidazo[4,5-d]pyridazin-5-ylmethyl]-isoxazol-3-yl}-5-methoxy-benzoic acid methyl ester]",50.3
12,"O=[N+]([O-])c1ccc(-c2cc(Cn3cc4nc(-c5cccc(F)c5F)nc-4cn3)on2)cc1 [Compound 199, 2-(2,3-Difluoro-phenyl)-5-[3-(4-nitro-phenyl)-isoxazol-5-ylmethyl]-5H-imidazo[4,5-d]pyridazine]",98.5
13,"Fc1cccc(-c2nc3cnn(Cc4cc(-c5ccc(Br)cc5)no4)cc-3n2)c1F [Compound 200, 5-[3-(4-bromo-phenyl)-isoxazol-5-ylmethyl]-2-(2,3-difluoro-phenyl)-5H-imidazo[4,5-d]pyridazine]",99.4
14,"CCCCc1ccc(-c2cc(Cn3cc4nc(-c5cccc(F)c5F)nc-4cn3)on2)cc1 [Compound 201, 5-[3-(4-Butyl-phenyl)-isoxazol-5-ylmethyl]-2-(2,3-difluoro-phenyl)-5H-imidazo[4,5-d]pyridazine]",100
15,"Fc1cccc(-c2nc3cnn(Cc4cc(-c5ccc(C(F)(F)F)cc5)no4)cc-3n2)c1F [Compound 202, 2-(2,3-Difluoro-phenyl)-5-[3-(4-trifluoromethyl-phenyl)-isoxazol-5-ylmethyl]-5H-imidazo[4,5-d]pyridazine]",99.2
16,"Fc1cc(C(F)(F)F)ccc1-c1cc(Cn2cc3nc(-c4cccc(F)c4F)nc-3cn2)on1 [Compound 203, 2-(2,3-Difluoro-phenyl)-5-[3-(2-fluoro-4-trifluoromethyl-phenyl)-isoxazol-5-ylmethyl]-5H-imidazo[4,5-d]pyridazine]",99.6
17,"Fc1cccc(-c2nc3cnn(Cc4cc(-c5ccc(C(F)(F)F)nc5)no4)cc-3n2)c1F [Compound 205, 2-(2,3-Difluoro-phenyl)-5-[3-(6-trifluoromethyl-pyridin-3-yl)-isoxazol-5-ylmethyl]-5H-imidazo[4,5-d]pyridazine]",98.7
18,"Fc1cc(-c2cc(Cn3cc4nc(-c5cccc(F)c5F)nc-4cn3)on2)ccc1C(F)(F)F [Compound 206, 2-(2,3-Difluoro-phenyl)-5-[3-(3-fluoro-4-trifluoromethyl-phenyl)-isoxazol-5-ylmethyl]-5H-imidazo[4,5-d]pyridazine]",98.1
19,"FCCCOc1ccc(-c2cc(Cn3cc4nc(-c5cccc(F)c5F)nc-4cn3)on2)cc1 [Compound 207, 2-(2,3-Difluoro-phenyl)-5-{3-[4-(3-fluoro-propoxy)-phenyl]-isoxazol-5-ylmethyl}-5H-imidazo[4,5-d]pyridazine]",99.5
20,"CN(C)c1ccc(-c2cc(Cn3cc4nc(-c5cccc(F)c5F)nc-4cn3)on2)cc1 [Compound 208, (4-{5-[2-(2,3-Difluoro-phenyl)-imidazo[4,5-d]pyridazin-5-ylmethyl]-isoxazol-3-yl}-phenyl)-dimethyl-amine]",69.7
21,"COC(=O)c1ccc(-c2cc(Cn3cc4nc(-c5cccc(F)c5F)nc-4cn3)on2)cc1 [Compound 209, 4-{5-[2-(2,3-difluoro-phenyl)-imidazo[4,5-d]pyridazin-5-ylmethyl]-isoxazol-3-yl}-benzoic acid methyl ester]",93.6
22,"N#Cc1ccc(-c2cc(Cn3cc4nc(-c5cccc(F)c5F)nc-4cn3)on2)cc1 [Compound 213, 4-{5-[2-(2,3-Difluoro-phenyl)-imidazo[4,5-d]pyridazin-5-ylmethyl]-isoxazol-3-yl}-benzonitrile]",98.1
23,"Fc1cccc(-c2nc3cnn(Cc4cc(-c5ccc(OC(F)(F)F)cc5)no4)cc-3n2)c1F [Compound 214, 2-(2,3-Difluoro-phenyl)-5-[3-(4-trifluoromethoxy-phenyl)-isoxazol-5-ylmethyl]-5H-imidazo[4,5-d]pyridazine]",98.5
24,"CN(C)CCCOc1ccc(-c2cc(Cn3cc4nc(-c5cccc(F)c5F)nc-4cn3)on2)cc1 [Compound 216, [3-(4-{5-[2-(2,3-Difluoro-phenyl)-imidazo[4,5-d]pyridazin-5-ylmethyl]-isoxazol-3-yl}-phenoxy)-propyl]-dimethyl-amine]",79.1
25,"Fc1cccc(-c2nc3cnn(Cc4cc(-c5ccc(CN6CCCC6)cc5)no4)cc-3n2)c1F [Compound 219, 2-(2,3-Difluoro-phenyl)-5-[3-(4-pyrrolidin-1-ylmethyl-phenyl)-isoxazol-5-ylmethyl]-5H-imidazo[4,5-d]pyridazine]",35
